Reference: patent US7521538B2, “Crystal structure of the ternary complex of 14-3-3/Fusicoccin/PMA and methods for designing new herbicides” (Max-Planck-Gesellschaft zur Foerderung der Wissenschaften …, priority 2003, dated 2009)
Changes are numbered by the printed parent chain. Read-outs that look alike come from different tables or passages of the source. Non-standard residues stand in square brackets, D forms with d. Residues, ends and D or L forms follow the SMILES beside them. pT = C[C@@H](OP(=O)(O)O)[C@H](N)C(=O)O

How the values were obtained:
[1] = target: T1, 14-3-3c (Nicotiana tabacum, UniProt P93343); test: Isothermal titration calorimetry, ligand binding to 14-3-3c alone; details: for binding of the toxin by itself to 14-3-3: unliganded 14-3-3, no peptide
T1 construct: Tobacco 14-3-3c (Gene bank AAC49892, amino acids 1-260 with an N-terminal His-tag); His-tag (N); made in house; host or cells: E. coli
T1 sequence (P93343 1-260): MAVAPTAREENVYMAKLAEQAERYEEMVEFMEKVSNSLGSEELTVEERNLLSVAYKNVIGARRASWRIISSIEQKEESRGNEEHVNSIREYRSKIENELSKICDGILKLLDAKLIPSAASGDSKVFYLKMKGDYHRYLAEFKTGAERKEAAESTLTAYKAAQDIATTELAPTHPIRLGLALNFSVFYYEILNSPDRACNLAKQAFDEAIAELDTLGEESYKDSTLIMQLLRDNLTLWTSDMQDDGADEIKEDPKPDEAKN
Method: (§1) In order to obtain more quantitative data with respect to the phosphorylated pentapeptide used in the structural analysis, thermodynamic constants were determined by means of isothermal titration calorimetry (ITC, 16).
(§2) Binding of ligands to 14-3-3c was measured with a MCS isothermal titration calorimeter (MicroCal Inc., Northampton). Ligands (fusicoccin 0.4 mM; phosphopbeptides 0.5 mM) were titrated in 8 to 20 μl steps by injection into solutions containing 14-3-3c (0.05 mM) alone or 14-3-3c saturated with one of the ligands in 25 mM HEPES buffer pH 6.5, 10 mM MgCl2, 5 mM CaCl2, 5 mM DTE at 35° C. Binding isotherms were fitted using a single binding site model and used to calculate the binding enthalpy (ΔH) and association constant (Ka) of the binding reaction. Dissociation constants (KD=1/Ka), Gibbs free energy changes (ΔG=−RTInKa) and entropy changes (TΔS=ΔH−ΔG) were calculated from ΔH and Ka. For the binding of peptide to a FC/14-3-3c complex, we also used non-saturating conditions of FC and observed two binding events which were fitted independently to K1 and K4. All measurements were repeated at least three times.

[2] = target: T2, binary 14-3-3/peptide complex (Nicotiana tabacum, UniProt P93343); test: Isothermal titration calorimetry, FC titrated to 14-3-3c saturated with peptide; type: binding; details: ITC, 35° C., pH 6.5
T2 construct: Tobacco 14-3-3c (Gene bank AAC49892, amino acids 1-260 with an N-terminal His-tag); His-tag (N); made in house; host or cells: E. coli (14-3-3c); the phosphopeptide was synthesized by Biosyntan (Berlin)
T2 sequence (P93343 1-260): T1 sequence (P93343 1-260)
Method: as §1, §2

[3] = target: T3, 14-3-3-fusicoccin complex (Nicotiana tabacum, UniProt P93343); test: Isothermal titration calorimetry, peptide binding to FC/14-3-3c complex; details: for increase of the binding affinity of the peptide by fusicoccin: complete binding cycle, ITC
T3 construct: Tobacco 14-3-3c (Gene bank AAC49892, amino acids 1-260 with an N-terminal His-tag); His-tag (N); made in house; host or cells: E. coli
T3 sequence (P93343 1-260): T1 sequence (P93343 1-260)
Method: as §1, §2

[4] = target: T4, 14-3-3c preloaded with Gln-Ser-Tyr-pThr-Val-Pro (Nicotiana tabacum, UniProt P93343); test: ITC, FC binding to 14-3-3c preloaded with C-terminally extended phosphopeptide; details: peptide with added C-terminal Pro, FIG. 3b upper panel
T4 construct: Tobacco 14-3-3c (Gene bank AAC49892, amino acids 1-260 with an N-terminal His-tag); His-tag (N); made in house; host or cells: E. coli (14-3-3c); the phosphopeptide was synthesized by Biosyntan (Berlin)
T4 sequence (P93343 1-260): T1 sequence (P93343 1-260)
Method: as §2
(§3) PMA binding to-14-3-3 is unique in that the penultimate C-terminal residue is the phosphorylated threonine (YpTV-COOH). […] Taken together; this explains why there is no effect of FC on any other known 14-3-3-ligand interaction. To date, all plant proteins characterized as interacting directly with 14-3-3 homologs contain the consensus binding motifs with the notable exception of the plasma membrane H^+-ATPase. […]

[5] = target: T5, 14-3-3c with phosphopeptide after removal of Val (Nicotiana tabacum, UniProt P93343); test: ITC, FC binding to 14-3-3c with phosphopeptide lacking the C-terminal Val; details: peptide with C-terminal Val deleted, FIG. 3b lower panel
T5 construct: Tobacco 14-3-3c (Gene bank AAC49892, amino acids 1-260 with an N-terminal His-tag); His-tag (N); made in house; host or cells: E. coli (14-3-3c); the phosphopeptide was synthesized by Biosyntan (Berlin)
Method: as §2, §3

[6] = Solubility of FC in aqueous solutions; type: physicochemical
[7] = target: T6, wild type 14-3-3 / PMA-GST fusion construct (66 C-terminal residues of PMA) (Homo sapiens, UniProt P63104); test: Far-western-blot overlay, wild type 14-3-3; type: binding; details: 0, 500 nM and 1000 nM fusicoccin
T6 construct: made in house
T6 sequence (P63104 1-245): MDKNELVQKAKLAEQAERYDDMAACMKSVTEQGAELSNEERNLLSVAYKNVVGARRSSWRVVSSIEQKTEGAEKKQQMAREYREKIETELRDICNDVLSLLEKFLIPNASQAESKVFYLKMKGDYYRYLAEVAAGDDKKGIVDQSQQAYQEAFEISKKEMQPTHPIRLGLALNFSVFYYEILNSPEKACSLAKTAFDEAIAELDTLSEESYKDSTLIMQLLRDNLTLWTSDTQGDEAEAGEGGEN
Method: (§4) In order to study the functional relevance of selected amino acids within the above-described binding pocket, residues the following point mutants were analysed in respect FC binding: (a) N49Q, (b) D222E, (c) F126E and (d) I175E in the homologous sequence of human 14-3-3z. The mutant proteins were expressed, purified and FC binding were tested in an in vitro assay in the presence of the 66 C-terminal residues of a PMA-GST fusion construct.
(§5) For the detection of FC binding a far-western-blot (FIG. 4) was performed. In this in vitro assay, the PMA-GST fusion construct, containing the 66 C-terminal residues of PMA, was immobilised on a nitrocellulose membrane via electroblotting of SDS-PAGE-separated proteins. The interacting protein, a his-tagged 14-3-3 construct was allowed to react with the GST-fusion protein in an overlay-solution. The interaction of these two proteins was mediated by fusicoccin. […] The actual binding of the his-tagged 14-3-3 protein was visualized after washing the membrane by immunodetecton with an anti-His-antibody, which was employed as primary antibody.

[8] = target: T7, 14-3-3z N49Q / PMA-GST fusion construct (Homo sapiens, UniProt P63104, N42Q); test: Far-western-blot overlay, 14-3-3 N49Q; type: binding; details: mutation N49Q
T7 construct: made in house
T7 sequence (P63104 1-245 N42Q): T6 sequence (P63104 1-245) with N42Q
Method: as §4, §5

[9] = target: T8, 14-3-3z D222E / PMA-GST fusion construct (Homo sapiens, UniProt P63104, D213E); test: Far-western-blot overlay, 14-3-3 D222E; type: binding; details: mutation D222E
T8 construct: made in house
T8 sequence (P63104 1-245 D213E): T6 sequence (P63104 1-245) with D213E
Method: as §4, §5

[10] = target: T9, 14-3-3z F126E / PMA-GST fusion construct (Homo sapiens, UniProt P63104, F117E); test: Far-western-blot overlay, 14-3-3 F126E; type: binding; details: mutation F126E
T9 construct: made in house
T9 sequence (P63104 1-245 F117E): T6 sequence (P63104 1-245) with F117E
Method: as §4, §5

[11] = target: T10, 14-3-3z I175E / PMA-GST fusion construct (Homo sapiens, UniProt P63104, I166E); test: Far-western-blot overlay, 14-3-3 I175E; type: binding; details: mutation I175E
T10 construct: made in house
T10 sequence (P63104 1-245 I166E): T6 sequence (P63104 1-245) with I166E
Method: as §4, §5

[12] = target: T11, 14-3-3z N49Q / GST-PMA2-CT66 (Homo sapiens, UniProt P63104, N42Q); test: GST-pulldown, 14-3-3 N49Q; type: binding; details: pull-down, mutation N49Q
T11 construct: made in house
T11 sequence (P63104 1-245 N42Q): T6 sequence (P63104 1-245) with N42Q
Method: as §4
(§6) Alternatively, a second in-vitro method was used to screen for fusicoccin binding. In this pull-down assay (FIG. 5), the GST-PMA fusion protein is immobilized on GSH-sepharose-beads and the his-tagged 14-3-3 protein will bind in the presence of fusioccin to the GST-fusion protein and can subsequently be found in the sepharose-fraction after washing and centrifugation of the beads. The detection again takes place via SDS-PAGE and Western-Blotting with subsequent immunodetection.

[13] = target: T12, 14-3-3z D222E / GST-PMA2-CT66 (Homo sapiens, UniProt P63104, D213E); test: GST-pulldown, 14-3-3 D222E; type: binding; details: pull-down, mutation D222E
T12 construct: made in house
T12 sequence (P63104 1-245 D213E): T6 sequence (P63104 1-245) with D213E
Method: as §4, §6

[14] = target: T13, 14-3-3z F126E / GST-PMA2-CT66 (Homo sapiens, UniProt P63104, F117E); test: GST-pulldown, 14-3-3 F126E; type: binding; details: pull-down, mutation F126E
T13 construct: made in house
T13 sequence (P63104 1-245 F117E): T6 sequence (P63104 1-245) with F117E
Method: as §4, §6

[15] = target: T14, 14-3-3z I175E / GST-PMA2-CT66 (Homo sapiens, UniProt P63104, I166E); test: GST-pulldown, 14-3-3 I175E; type: binding; details: pull-down, mutation I175E
T14 construct: made in house
T14 sequence (P63104 1-245 I166E): T6 sequence (P63104 1-245) with I166E
Method: as §4, §6

[16] = target: T15, 14-3-3 (Nicotiana tabacum, UniProt P93343); test: Binding of non-phosphorylated peptide to 14-3-3 (not shown, method not stated)
T15 sequence (P93343 1-260): T1 sequence (P93343 1-260)
Source text: The phosphopeptide occupies the central binding groove of 14-3-3c in an extended conformation. The phosphate moiety of the phosphothreonine forms electrostatic interactions with a positively charged patch formed by residues Lys56, Arg63, and Arg136 and a H-bond to Tyr137 (FIG. 1b). […] Additionally, there are a number of H-bonds (cut-off limit 3.4 Å) between the peptide, mostly from the main-chain, and conserved protein side-chains. The peptide's C-terminal barboxylate is mostly contacted by basic residues and the side chains of the Val and Tyr residue flanking the phosphothreonine form van der Waals contacts to the protein (FIG. 1b). The structure confirms the notion that the C-terminal YTV-motif is highly conserved in plant P-type H^+-ATPases.

C=CC(C)(C)OC[C@H]1O[C@H](O[C@@H]2C3=C([C@H](C)COC(C)=O)C[C@H](O)[C@]3(C)/C=C3/[C@@H](COC)CC[C@H]3[C@@H](C)[C@H]2O)[C@H](O)[C@@H](OC(C)=O)[C@@H]1O [Fusicoccin]
Kd ([1]; calculated from K4 and K1×K2=K3×K4, read-out: affinity of FC to 14-3-3, more reliable value): 66 µM
Kd ([1]; direct ITC determination, somewhat unreliable, read-out: affinity of FC to 14-3-3): ~50 µM
binding of the toxin by itself to 14-3-3 ([1]; listed as FC): weak binding
binding of the toxin by itself to 14-3-3 ([1]; listed as toxin): binds only weakly
Kd [2]: 0.7 µM
increase of the binding affinity of the peptide by fusicoccin [3]: 93 fold
increase of the binding affinity of the peptide by fusicoccin ([3]; listed as toxin): more than 90 fold
FC binding [4]: drastically weakens the binding
FC binding ([4]; listed as FC): severely impaired
FC binding [5]: drastically weakens the binding
FC binding ([5]; listed as FC): significant lower binding affinity
solubility in aqueous solutions [6]: insolubility
fusicoccin mediated interaction of 14-3-3 with PMA-GST [7]: interaction was only observed in the presence of fusicoccin
fusicoccin mediated PMA binding [8]: strong reduction
fusicoccin mediated PMA binding [9]: strong reduction
fusicoccin mediated PMA binding [10]: complete inhibition of binding
fusicoccin mediated PMA binding [11]: complete inhibition of binding
fusicoccin mediated PMA binding [12]: strong reduction
fusicoccin mediated PMA binding [13]: strong reduction
fusicoccin mediated PMA binding [14]: complete inhibition of binding
fusicoccin mediated PMA binding [15]: complete inhibition of binding

CC(C)[C@H](NC(=O)[C@@H](NC(=O)[C@H](Cc1ccc(O)cc1)NC(=O)[C@H](CO)NC(=O)[C@@H](N)CCC(N)=O)[C@@H](C)OP(=O)(O)O)C(=O)O [peptide, Gln-Ser-Tyr-pThr-Val] (H-QSY[pT]V-OH; N-terminus assumed)
Kd [1]: 2.5 µM
enthalpy (ΔH) of peptide binding ([1]; unliganded 14-3-3): -10 kcal/mol
−TAS of peptide binding ([1]; unliganded 14-3-3): 1.7 kcal/mol
enthalpy (ΔH) of peptide binding ([3]; 14-3-3-FC complex): -11.8 kcal/mol
−TAS of peptide binding ([3]; 14-3-3-FC complex): 0.4 kcal/mol
binding between 14-3-3 and the peptide ([3]; after saturation of the binding site with FC, FIG. 3A): much tighter

Gln-Ser-Tyr-Thr-Val (QSYTV; printed: Gln-Ser-Tyr-Thr-Val) [non-phosphorylated version of the PMA2 C-terminal pentapeptide]
binding to 14-3-3 [16]: binding could not be detected
